# Experimental data from patent US8673888B2, “Depsipeptide for therapy of kidney cancer” (The United States of America, represented by the Secretary, …, priority 2002, dated 2014).
# Assays:
# [1] = tested on: human kidney tumor (RXF-631L); assay: Antitumor effect on human renal tumor xenograft (RXF-631L) in nude mice; assay type: in vivo, mouse; settings: RXF-631L s.c. xenograft in nude mice; 3.2 and 1.8 mg/kg i.v. q4d×3; FIG. 1
# Procedure: A recommended amount of FR901228 was weighed, a solvent (10% HCO-60 (Nihon Surfactant Kogyo K.K./saline) was added and the mixture was ultrasonicated for dissolution. The positive control substance, Taxol, was dissolved in Cremophor EL (SIGMA/ethanol (1:1)) to a concentration of 24 mg/mL before test and preserved in refrigerator. When in use, a 9-fold amount of physiological saline was added to dilute the substance to 2.4 mg/mL (solvent component: 5% Cremophor EL-5% ethanol-90% saline).
# For the antitumor activity test of the drug, BALB/cANnNCrj-nu/nu mice (female, 6-week-old) were purchased from Charles River Japan (Yokohama, Japan), and after acclimation for more than 1 week, subjected to the test. The mice were reared in an SPF environment, where free access to water and feed was allowed. […]
# Fragments (3×3×3 mm) of RXF-631L tumor were subcutaneously implanted into the right flank of BALB/cANnNCrj-nu/nu mice. […] The tumor volume was calculated from the formula: tumor volume (mm^3)=½×L×W^2 where L and W represent the length and width of the tumor mass, respectively.
# The administration was started on the day the mice were grouped (Day 0). […] The liquid amount of administration was calculated based on the body weight measured on the day of administration (0.1 mL/10 g body weight).
# The tumor size (length, width) and body weight were measured twice a week from Day 0.
# [2] = tested on: clear cell renal carcinoma; assay: Antineoplastic response in a patient with clear cell renal carcinoma (RECIST criteria); assay type: in vivo, human
# Procedure: This patient was a person with a history of clear cell renal carcinoma that was diagnosed in 1996. The patient received a total of 10 doses of FR901228: FR901228 was administered at 9.10 mg/m^2 on day 1 and day 5 of the first cycle (21 days), 9.10 mg/m^2 on day 1 of the second cycle (21 days), 9.10 mg/m^2 on day 1 and day 5 of the third cycle (28 days), 9.10 mg/m^2 on day 1 of the fourth cycle (22 days), 12.70 mg/m^2 on day 1 of the fifth cycle (20 days), 17.8 mg/m^2 on day 1 of the sixth cycle (23 days), 17.8 mg/m^2 on day 1 of the seventh cycle (23 days) and 17.8 mg/m^2 on day 1 of the eighth cycle (21 days) by continuous infusion for 4 hours. The treatment effect was evaluated based on the RECIST criteria.
structure (smiles),measurement,setting,value
C/C=C1\NC(=O)[C@H]2CSSCC/C=C/[C@H](CC(=O)N[C@H](C(C)C)C(=O)N2)OC(=O)[C@H](C(C)C)NC1=O [FR901228],growth of human kidney cancer in vivo (tumor size),[1],suppressed the growth
same,treatment effect (RECIST criteria),"[2]; one patient, 9.10 mg/m^2 by 4 h continuous infusion, after the first two cycles",partial response
same,treatment effect (RECIST criteria),"[2]; same patient, 10 doses of 9.10-17.8 mg/m^2, after cycle 8",disease progression
